Results from patent EP0126817A1, “Suppressing of graft rejection in organ transplantation” (SHANKSVILLE CORPORATION N.V., priority 1983, dated 1984).

Key:
Type in all cases: cell-based
cytotoxic T lymphoblasts = test: Chromium release test: inhibition of tumor cell killing by cytotoxic T cells activated by interleukin 2; settings: HeLa tumor cells labelled with radioactive chromium, 2 micrograms per ml of culture medium
Experimental: The following test is conducted to determine the inhibition of tumor cell killing capability of cytotoxic T cells activated by interleukin 2. Tumor cells from HeLa strain are labelled with radioactive chromium. The cells are washed and divided into two portions comprising the same cell number. Both portions are coincubated with cytotoxic T lymphoblasts for 18 hours. The culture medium contains IL-2. To one of the portions, at the beginning of the cocultivation, desialo GM1 is added'in concentration of 2 micrograms per ml of culture medium. The culture medium is decanted and the cells are pelleted in a centrifuge.

T cell blasts = test: In vitro T cell culture systems containing IL-2 (general finding)
Source text: This observation therefore leads to an in vivo procedure for modification of the cell mediated immunological graft rejection mechanism by blocking the formation of cytotoxic T cells at the level of the T effector cells and without destroying macrophage cells. Accordingly, the procedure of the present invention is highly advantageous as compared to presently available techniques for transplant protection, particularly by the use of immunosuppressive drugs. […] Therefore, such drugs will subject the patient to increased risk of infectious diseases. […] At the time of the graft transplantation therefore, the consequence of IL-2 and T cell blasts will allow the latter to proliferate until the IL-2 is consumed. This process generally requires several days. In contrast, the immunosuppressive blocking agents of this invention require less than 24 hours to effectively terminate cytotoxic T cell proliferation and to kill off any existing cytotoxic T cells.

[1] = tested on: Peripheral blood lymphocytes; test: T lymphocyte blast transformation in IL-2 containing culture medium pretreated with the ganglioside and dialysed; settings: IL-2 medium RPMI 1640 treated with 5 micrograms per ml at 37°C for 30 minutes, dialysed 24 hours at 4°C; cells incubated 7 days
Experimental: This Example illustrates that asialo GM1 reacts with a soluble mediator for T lymphocyte blastogenesis inhibiting cytotoxic T cell formation. Peripheral blood lymphocytes are isolated by a density gradient centrifugation on ficoll hypaque and incubated 24 hours in the absence of serum proteins. Interleukin 2 containing tissue culture medium RPMI 1640 is treated with asialo GM1 in a concentration of 5 micrograms per ml of culture medium. The incubation with asialo GM1 is performed at 37°C for 30 minutes. Thereafter,the treated culture medium is dialysed against RPMI 1640 without supplements for 24 hours at a temperature of 4°C. The cells are incubated in the dialysed (and thus containing no free asialo GM1) culture medium for 7 days. For dialysis, the critical micellar concentration (CMC) of the ganglioside has to be regarded. If it is exceeded, dialysis will be impossible. CMC values for each ganglioside have been established, and are readily available.

For “Gal(beta 1-3)GalNac(beta 1-4)Glc(beta 1-1)Cer [asialo GM1]”, the “% of Cr released, Target and T cell” value (cytotoxic T lymphoblasts; coincubated with cytotoxic T lymphoblasts for 18 hours, IL-2 medium) was 5.3%, the “% of Cr released, Target and control” value (cytotoxic T lymphoblasts; control in place of T cells, 18 hours) was 3.8% and the “proliferation of T cell blasts in growing T cell lines” value (T cell blasts) was “prevents proliferation of T cell blasts”. The “blast transformation of T cells” value [1] was “no blast transformation of T cells is observed”.
